Experimental data taken from patent EP1018560A1, “VECTORS FOR TREATING CANCER” (Dnavec Research Inc., priority 1997, dated 1999).
Structures can show the parent of a compound that is named as a salt. Starred links: 1 amine or outer side, 2 acyl side, 3 side chain; linkers in the order of their positions; H or OH if unused. Positions of bridges follow the written chain, without caps; N, C: chain ends. Non-standard residues stand in square brackets, D forms with d. Residues, ends and D or L forms follow the SMILES beside them. Chains are numbered I, II in the order given. Actinocin(9to1) = Cc1c2oc3c(C)ccc(C(=O)[*:1])c3nc-2c(C(=O)[*:2])c(N)c1=O; NMeV = CN[C@H](C(=O)O)C(C)C; Sar = CNCC(=O)O

Key:
[1] = system: U2OS cells (p53+); assay: Potentiation of p53-dependent suppression of expression by antitumor agents (β-galactosidase activity); assay type: cell-based
Experimental: U2OS cells (p53+) that had been placed into six-well plates (6 x 10^5 cells per well) on the previous day were infected with AxYp53RECre at the indicated MOIs. Various compounds (actinomycin D, doxorubicin hydrochloride, etoposide, and nocodazole, all from Sigma, USA) were then added at the indicated concentrations. On the next day, the compounds were removed, and AxCAYLLZ was infected at the indicated MOIs. Six days later, crude extracts of infected cells were prepared and assayed for β-galactosidase activity similarly as described in 3-1). […]

[2] = system: p53-Deficient Saos2 cells; assay: Cell death specific to p53-deficient cells (ganciclovir sensitivity, viable cell number); assay type: cell-based, human; conditions: combination of AxYp53RECre, AxCAYLTK, and ganciclovir; Saos2 versus U20S cells
Experimental: p53-Deficient Saos2 cells and p53-expressing U20S cells were inoculated then cultured in the presence of 50 ng/ml nocodazole (Sigma, USA) on the next day. Nocodazole was removed on the following day, and the cells were infected with AxYp53RECre at the indicated MOIs. On the day after that, the cells were further infected with AxCAYLTK at the indicated MOIs. Three days later, infected cells were placed into 96-well plates at a quantity of 2000 cells/well, and various concentrations of ganciclovir (Nippon Roche) were added thereto. Seven days later, the number of viable cells was counted using a Cell Titer 96 AQueous Non-Radioactive Cell Proliferation Assay (Promega, USA). […] In this figure, "% viable cell number" refers to the relative number of cells compared to the number of cells in the absence of ganciclovir taken as 100. Mean values of five samples are shown. Error bars show standard deviations.

Cc1c2oc3c(C)ccc(C(=O)N[C@@H]4C(=O)N[C@H](C(C)C)C(=O)N5CCC[C@H]5C(=O)N(C)CC(=O)N(C)[C@@H](C(C)C)C(=O)O[C@@H]4C)c3nc-2c(C(=O)N[C@@H]2C(=O)N[C@H](C(C)C)C(=O)N3CCC[C@H]3C(=O)N(C)CC(=O)N(C)[C@@H](C(C)C)C(=O)O[C@@H]2C)c(N)c1=O [actinomycin D] (I: T[dV]P[Sar][NMeV] / II: T[dV]P[Sar][NMeV]; ester I:1-I:C, II:1-II:C; linker I:N-II:N via Actinocin(9to1)) was tested. Which “Remaining β-galactosidase activity” value ([1]; AxCAYLLS MOI 10, pAxYp53RECre MOI 0, 10 ng/ml actinomycin D (reference)) did it give?
The value was 100%.

And the “Remaining β-galactosidase activity” value ([1]; AxCAYLLS MOI 10, pAxYp53RECre MOI 30, 10 ng/ml actinomycin D)?
Its value is 2.4%.

For COc1cccc2c1C(=O)c1c(O)c3c(c(O)c1C2=O)C[C@@](O)(C(=O)CO)C[C@@H]3O[C@H]1C[C@H](N)[C@H](O)[C@H](C)O1 [doxorubicin, doxorubicin hydrochloride], which “Remaining β-galactosidase activity” value ([1]; AxCAYLLS MOI 10, pAxYp53RECre MOI 0, 100 ng/ml doxorubicin (reference)) is on record?
The value was 100%.

And the “Remaining β-galactosidase activity” value ([1]; AxCAYLLS MOI 10, pAxYp53RECre MOI 30, 100 ng/ml doxorubicin)?
Its value is 0.5%.

With COc1cc([C@@H]2c3cc4c(cc3[C@@H](O[C@@H]3O[C@@H]5CO[C@@H](C)O[C@H]5[C@H](O)[C@H]3O)[C@H]3COC(=O)[C@H]23)OCO4)cc(OC)c1O [etoposide] as the molecule, how does the “Remaining β-galactosidase activity” value ([1]; AxCAYLLS MOI 10, pAxYp53RECre MOI 0, 1000 ng/ml etoposide (reference)) read?
Its value is 100%.

What about the “Remaining β-galactosidase activity” value ([1]; AxCAYLLS MOI 10, pAxYp53RECre MOI 30, 1000 ng/ml etoposide) of the same molecule?
Its value is 0.6%.

How did the cell death [2] turn out when Nc1nc(O)c2ncn(COC(CO)CO)c2n1 [ganciclovir] was run?
The cell death was “caused cell death specific to p53-deficient cells”.

COC(=O)Nc1nc2ccc(C(=O)c3cccs3)cc2[nH]1 [nocodazole] was tested. Which “Remaining β-galactosidase activity” value ([1]; AxCAYLLS MOI 10, pAxYp53RECre MOI 0, 50 ng/ml nocodazole (reference)) did it give?
Its value is 100%.

What about the “Remaining β-galactosidase activity” value ([1]; AxCAYLLS MOI 10, pAxYp53RECre MOI 10, 50 ng/ml nocodazole) of the same molecule?
Its value is 31%.
